Drawing on patent publication US20250092017A1, “2-PIPERIDYL OR 2-PYRAZOLYL SUBSTITUTED PYRIMIDINE COMPOUND SERVING AS EGFR INHIBITOR” (SUZHOU PUHE BIOPHARMA CO., LTD., priority 2022, published 2025), this text covers GI50, IC50 and CLint scaled for two compounds.

One data set addresses T1, Ba/F3-FL-EGFR (Homo sapiens, UniProt P00533).
T1 construct: FL read as full length
The data set is described as follows: CellTiter-Glo proliferation, Ba/F3-FL-EGFR. It counts as cell-based. Particulars: 72 hours, read-out: Ba/F3-FL-EGFR IC50/nM. The method in brief: (§1)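 Ba/F3 lines dependent on the indicated EGFR variants were treated with compounds at a final DMSO concentration of 0.1% at 37 °C, 5% CO2. Viability was read by CellTiter-Glo luminescence, and inhibition rate was normalised to DMSO-treated cells (max) and medium-only wells (min). IC50 came from inhibition curves.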

The target in another data set is Ba/F3-FL-EGFR-L858R (Homo sapiens, UniProt P00533, L858R, cells depend on it). Put plainly: CellTiter-Glo proliferation, Ba/F3-FL-EGFR-L858R. It counts as cell-based. Particulars: 72 hours, read-out: Ba/F3-FL-EGFR-L858R IC50/nM. The method in brief: as §1
Data set [1] concerns the target T2, Ba/F3-TEL-EGFR-L858R-C797S (Homo sapiens, UniProt P00533, C797S/L858R, cells depend on it).
T2 construct: fused on or other part: N-terminal TEL (ETV6) oligomerising part fused to the EGFR intracellular/kinase part; P41212 (Transcription factor ETV6)
Put plainly: CellTiter-Glo proliferation, Ba/F3-TEL-EGFR-L858R-C797S. Particulars: 72 hours, read-out: Ba/F3-TEL-EGFR-L858R-C797S IC50/nM. It counts as cell-based. An outline of the steps:
as §1

Data set [2] addresses Ba/F3-FL-EGFR-L858R-T790M-C797S (Homo sapiens, UniProt P00533, T790M/C797S/L858R, cells depend on it). Put plainly: CellTiter-Glo proliferation, Ba/F3-FL-EGFR-L858R-T790M-C797S. It counts as cell-based. Conditions: 72 hours, read-out: Ba/F3-FL-EGFR-L858R-T790M-C797S IC50/nM. The method in brief:
as §1

For data set [3], the system named is Ba/F3-FL-EGFR-del19-C797S. The data set is described as follows: CellTiter-Glo proliferation, Ba/F3-FL-EGFR-del19-C797S. It counts as cell-based. Particulars: 72 h, proliferation, 72 hours, CellTiter-Glo; read-out: Ba/F3-FL-EGFR-del19-C797S IC50/nM. An outline of the steps: as §1
The target in data set [4] is Ba/F3-FL-EGFR-del19-T790M-C797S (Homo sapiens, UniProt P00533, DEL746-750/T790M/C797S, cells depend on it). Put plainly: CellTiter-Glo proliferation, Ba/F3-FL-EGFR-del19-T790M-C797S. It counts as cell-based. Particulars: 72 hours, read-out: Ba/F3-FL-EGFR-del19-T790M-C797S IC50/nM. As for the experimental part: Promega CellTiter-Glo reagent was used to detect the effects of small molecule inhibitors on the proliferation of three Ba/F3 cell lines (Ba/F3-FL-EGFR-de119, Ba/F3-FL-EGFR-de119-T790M, Ba/F3-FL-EGFR-de119-T790M-C797S).
Chain of Ba/F3-FL-EGFR-del19-T790M-C797S (P00533 with tags, fused parts or gaps DEL746-750/T790M/C797S): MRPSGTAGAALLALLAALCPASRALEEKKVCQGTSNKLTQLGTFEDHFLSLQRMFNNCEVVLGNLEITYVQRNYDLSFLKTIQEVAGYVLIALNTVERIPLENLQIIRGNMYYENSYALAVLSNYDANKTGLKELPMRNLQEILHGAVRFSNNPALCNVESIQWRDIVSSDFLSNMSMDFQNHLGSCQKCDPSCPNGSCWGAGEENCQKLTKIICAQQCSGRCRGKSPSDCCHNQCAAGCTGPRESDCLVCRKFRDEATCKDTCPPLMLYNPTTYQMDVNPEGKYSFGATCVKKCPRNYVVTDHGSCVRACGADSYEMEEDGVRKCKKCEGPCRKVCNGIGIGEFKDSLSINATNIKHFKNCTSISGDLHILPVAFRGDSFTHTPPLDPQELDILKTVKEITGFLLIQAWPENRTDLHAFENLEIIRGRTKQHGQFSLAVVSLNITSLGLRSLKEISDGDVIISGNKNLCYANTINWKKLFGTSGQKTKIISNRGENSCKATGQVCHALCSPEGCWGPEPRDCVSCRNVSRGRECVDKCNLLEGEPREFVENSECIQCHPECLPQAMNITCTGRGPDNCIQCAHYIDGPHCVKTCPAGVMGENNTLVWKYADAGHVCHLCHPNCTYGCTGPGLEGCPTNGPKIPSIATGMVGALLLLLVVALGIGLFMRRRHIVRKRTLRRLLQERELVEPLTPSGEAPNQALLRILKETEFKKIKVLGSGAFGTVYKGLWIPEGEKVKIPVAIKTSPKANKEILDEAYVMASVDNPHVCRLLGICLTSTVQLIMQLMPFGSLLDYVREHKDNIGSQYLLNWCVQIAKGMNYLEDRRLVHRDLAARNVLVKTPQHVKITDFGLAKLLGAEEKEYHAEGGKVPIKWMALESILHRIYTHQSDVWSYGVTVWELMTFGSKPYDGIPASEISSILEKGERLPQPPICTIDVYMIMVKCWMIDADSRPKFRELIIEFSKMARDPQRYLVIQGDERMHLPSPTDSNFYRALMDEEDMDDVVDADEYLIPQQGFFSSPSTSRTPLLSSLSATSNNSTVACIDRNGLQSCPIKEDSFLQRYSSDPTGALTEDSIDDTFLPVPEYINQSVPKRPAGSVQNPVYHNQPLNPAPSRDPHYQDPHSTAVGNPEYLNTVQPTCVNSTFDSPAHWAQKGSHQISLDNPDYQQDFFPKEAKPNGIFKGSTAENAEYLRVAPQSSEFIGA
The cell lines were cultured in an incubator at 37° C. and 5% CO2. Cells were passaged regularly and cells in the logarithmic phase were used for plating. 95 μL of cell suspension was added to each well of the cell plate, and culture medium without cells (containing 0.1% DMSO) was added to the Min control wells. Substance addition for compound detection cell plate: 5 μL of 20× compound working solution was added to the cell culture plate. 5 μL of DMSO-cell culture medium mixture was added to the Max control, with the final DMSO concentration of 0.1%. 5 μL of DMSO-cell culture medium mixture was added to the Max control. The final DMSO concentration was 0.1%.
Cell viability was detected by CellTiter-Glo luminescence assay. Data analysis:
The cell proliferation inhibition rate (Inhibition Rate) data was processed using the following formula: […]
wherein: RLUDrug represents the relative luminescence unit of the cells with the addition of drug, RLUMin represents the luminescence unit of the culture medium, and RLUMax represents the relative luminescence unit of the cells with the addition of DMSO.
The inhibition rates corresponding to different concentrations of compounds were calculated in EXCEL, and then the inhibition rate curve was plotted using GraphPad Prism software and related parameters including the maximum and minimum inhibition rates of cells and IC50 values were calculated.

Data set [5] in a line: Liver microsome stability test, human. Particulars: human liver microsomes 0.5 mg/ml, compound 1 μM, NADPH 1 mM, within 60 minutes. It counts as in vitro ADME. As for the experimental part: (§2) The compounds of the present disclosure were subjected to a liver microsome stability test. The compounds to be tested were co-incubated with liver microsomes of different species with or without the addition of NADPH. The final concentration of the compounds to be tested in the test system was 1 μM. The final concentration of NADPH was 1 mM, and the final concentration of liver microsomes was 0.5 mg/ml.

The nature of data set [6]: Liver microsome stability test, mouse. Particulars: mouse liver microsomes 0.5 mg/ml, compound 1 μM, NADPH 1 mM, within 60 minutes. It counts as in vitro ADME. As for the experimental part:
as §2

Data set [7] addresses Ba/F3-FL-EGFR-Del19 (E746-A750) (Homo sapiens, UniProt P00533, DEL746-750, cells depend on it). Put plainly: CellTiter-Glo proliferation, Ba/F3-FL-EGFR-Del19. Particulars: read-out: Ba/F3-FL-EGFR-Del19 (E746-A750), 72 hours.
Data set [8] addresses Ba/F3-FL-EGFR-del19/T790M (Homo sapiens, UniProt P00533, DEL746-750/T790M, cells depend on it). Put plainly: CellTiter-Glo proliferation, Ba/F3-FL-EGFR-del19/T790M. Conditions: read-out: Ba/F3-FL-EGFR-del19/T790M IC50/nM, 72 hours.

Chain of Ba/F3-FL-EGFR-del19/T790M (P00533 with tags, fused parts or gaps DEL746-750/T790M): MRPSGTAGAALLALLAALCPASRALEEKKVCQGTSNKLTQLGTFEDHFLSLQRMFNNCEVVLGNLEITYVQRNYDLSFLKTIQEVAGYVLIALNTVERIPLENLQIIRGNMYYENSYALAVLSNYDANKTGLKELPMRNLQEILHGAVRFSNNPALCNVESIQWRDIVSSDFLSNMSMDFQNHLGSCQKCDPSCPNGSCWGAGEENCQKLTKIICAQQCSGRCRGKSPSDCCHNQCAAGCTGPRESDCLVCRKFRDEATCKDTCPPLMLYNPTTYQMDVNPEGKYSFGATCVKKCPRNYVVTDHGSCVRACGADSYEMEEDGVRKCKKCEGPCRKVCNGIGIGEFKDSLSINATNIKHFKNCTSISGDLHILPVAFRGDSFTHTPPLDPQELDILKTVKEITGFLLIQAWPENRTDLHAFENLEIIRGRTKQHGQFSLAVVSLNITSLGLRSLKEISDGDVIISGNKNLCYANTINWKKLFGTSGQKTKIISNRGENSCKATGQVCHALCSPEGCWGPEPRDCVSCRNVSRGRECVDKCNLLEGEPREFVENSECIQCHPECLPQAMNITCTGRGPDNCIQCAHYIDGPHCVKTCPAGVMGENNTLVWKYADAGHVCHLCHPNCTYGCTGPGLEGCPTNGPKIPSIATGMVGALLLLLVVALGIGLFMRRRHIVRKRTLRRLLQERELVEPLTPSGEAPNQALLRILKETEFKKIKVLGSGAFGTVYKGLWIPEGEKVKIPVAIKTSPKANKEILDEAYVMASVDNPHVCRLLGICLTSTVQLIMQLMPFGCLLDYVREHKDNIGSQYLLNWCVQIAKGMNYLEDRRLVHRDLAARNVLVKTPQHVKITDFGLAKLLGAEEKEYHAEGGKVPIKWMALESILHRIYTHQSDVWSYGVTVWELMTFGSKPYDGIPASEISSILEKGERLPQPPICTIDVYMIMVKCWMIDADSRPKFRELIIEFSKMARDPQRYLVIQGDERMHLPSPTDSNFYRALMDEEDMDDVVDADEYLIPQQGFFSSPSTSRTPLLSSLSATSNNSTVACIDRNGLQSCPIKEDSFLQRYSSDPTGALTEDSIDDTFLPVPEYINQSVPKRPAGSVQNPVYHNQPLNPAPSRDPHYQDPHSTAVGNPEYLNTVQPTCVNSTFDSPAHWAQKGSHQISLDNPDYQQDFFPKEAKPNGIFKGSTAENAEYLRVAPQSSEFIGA
Chain of Ba/F3-FL-EGFR-L858R-T790M-C797S (P00533 whole entry T790M/C797S/L858R): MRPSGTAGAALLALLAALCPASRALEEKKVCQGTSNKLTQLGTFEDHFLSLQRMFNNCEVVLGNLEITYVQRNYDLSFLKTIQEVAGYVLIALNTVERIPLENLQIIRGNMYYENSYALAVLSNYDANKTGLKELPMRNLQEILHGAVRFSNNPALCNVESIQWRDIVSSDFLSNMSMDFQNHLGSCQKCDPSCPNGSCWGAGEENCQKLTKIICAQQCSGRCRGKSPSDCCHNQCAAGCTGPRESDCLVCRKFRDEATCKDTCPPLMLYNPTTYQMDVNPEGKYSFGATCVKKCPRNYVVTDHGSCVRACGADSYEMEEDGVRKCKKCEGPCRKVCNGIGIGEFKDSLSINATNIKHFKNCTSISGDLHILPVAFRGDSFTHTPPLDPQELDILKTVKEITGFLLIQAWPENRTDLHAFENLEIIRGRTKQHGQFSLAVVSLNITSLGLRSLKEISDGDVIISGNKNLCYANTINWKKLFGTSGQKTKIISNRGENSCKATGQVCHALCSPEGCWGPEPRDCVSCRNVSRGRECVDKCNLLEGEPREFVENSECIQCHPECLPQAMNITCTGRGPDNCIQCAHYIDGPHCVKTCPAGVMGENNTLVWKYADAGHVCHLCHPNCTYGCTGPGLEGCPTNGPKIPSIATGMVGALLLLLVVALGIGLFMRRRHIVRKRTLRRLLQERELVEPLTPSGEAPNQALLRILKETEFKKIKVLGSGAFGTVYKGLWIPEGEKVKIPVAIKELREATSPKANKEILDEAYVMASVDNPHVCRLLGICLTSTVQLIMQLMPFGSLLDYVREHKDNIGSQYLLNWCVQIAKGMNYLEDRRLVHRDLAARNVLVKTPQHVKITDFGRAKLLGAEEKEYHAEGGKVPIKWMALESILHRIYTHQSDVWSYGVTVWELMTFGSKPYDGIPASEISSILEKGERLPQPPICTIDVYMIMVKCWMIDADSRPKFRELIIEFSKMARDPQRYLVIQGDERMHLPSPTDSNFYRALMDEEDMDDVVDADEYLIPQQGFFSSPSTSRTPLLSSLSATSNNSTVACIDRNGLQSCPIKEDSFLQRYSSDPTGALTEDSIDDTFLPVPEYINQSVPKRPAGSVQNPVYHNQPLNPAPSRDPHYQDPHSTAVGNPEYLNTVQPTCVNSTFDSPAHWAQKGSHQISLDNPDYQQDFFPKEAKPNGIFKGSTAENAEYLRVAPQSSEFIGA
T1 sequence (P00533 whole entry, change not shown): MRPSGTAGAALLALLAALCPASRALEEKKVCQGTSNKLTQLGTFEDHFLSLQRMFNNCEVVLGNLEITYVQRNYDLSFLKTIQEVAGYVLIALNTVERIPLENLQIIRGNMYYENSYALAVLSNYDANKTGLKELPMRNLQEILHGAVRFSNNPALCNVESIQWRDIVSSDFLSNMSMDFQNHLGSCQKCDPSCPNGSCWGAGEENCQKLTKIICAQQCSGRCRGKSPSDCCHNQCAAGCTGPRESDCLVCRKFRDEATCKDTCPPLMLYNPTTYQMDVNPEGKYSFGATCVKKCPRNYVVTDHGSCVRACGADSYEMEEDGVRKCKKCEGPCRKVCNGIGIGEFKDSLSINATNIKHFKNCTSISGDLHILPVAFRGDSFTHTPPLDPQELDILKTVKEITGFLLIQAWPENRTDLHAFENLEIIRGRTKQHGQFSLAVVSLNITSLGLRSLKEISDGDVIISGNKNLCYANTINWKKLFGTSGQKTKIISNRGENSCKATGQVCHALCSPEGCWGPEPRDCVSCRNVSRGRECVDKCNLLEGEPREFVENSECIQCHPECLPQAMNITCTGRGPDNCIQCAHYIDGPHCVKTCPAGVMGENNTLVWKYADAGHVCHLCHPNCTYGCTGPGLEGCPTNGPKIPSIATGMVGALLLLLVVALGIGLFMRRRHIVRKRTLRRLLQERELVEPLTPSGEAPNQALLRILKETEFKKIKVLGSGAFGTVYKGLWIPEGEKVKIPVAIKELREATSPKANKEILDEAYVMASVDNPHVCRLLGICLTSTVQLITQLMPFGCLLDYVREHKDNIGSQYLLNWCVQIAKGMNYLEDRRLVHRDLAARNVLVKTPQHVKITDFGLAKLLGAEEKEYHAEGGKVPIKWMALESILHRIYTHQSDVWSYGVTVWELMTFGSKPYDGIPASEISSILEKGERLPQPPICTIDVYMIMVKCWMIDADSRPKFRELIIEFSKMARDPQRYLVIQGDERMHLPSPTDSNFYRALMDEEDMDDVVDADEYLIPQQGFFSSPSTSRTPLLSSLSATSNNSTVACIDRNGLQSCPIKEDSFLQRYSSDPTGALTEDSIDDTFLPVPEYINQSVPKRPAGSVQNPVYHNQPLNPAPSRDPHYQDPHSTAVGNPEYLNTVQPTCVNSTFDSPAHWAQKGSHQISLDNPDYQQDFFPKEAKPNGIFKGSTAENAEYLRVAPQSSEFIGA

Regarding `CC(C)c1ccc(N2C[C@H](CS(C)(=O)=O)[C@H]2C)c2cnc(Nc3ccnc(-c4cnn(S(=O)(=O)C5CC5)c4)n3)cc12` [Compound H12], the GI50 is 209 nM on Ba/F3-FL-EGFR; 7.7 nM at Ba/F3-FL-EGFR-L858R; 5.8 nM in [1]; 16 nM in [2]; 7.8 nM in data set [4]; 15 nM in data set [7]. In [8], the GI50 worked out at 5.1 nM. The IC50 in data set [3] is 4.3 nM. Further, the CLint scaled at 1 μM in data set [5] came out at 14.2 mL/min/kg; in data set [6] it was 196 mL/min/kg.

Take `CC(C)c1ccc(N2CC(N(C)S(C)(=O)=O)C2)c2cnc(Nc3ccnc(N4CC[C@@H](O)[C@@H](F)C4)n3)cc12` [Compound P39a]: the GI50 on Ba/F3-FL-EGFR turned out to be 670 nM; on Ba/F3-FL-EGFR-L858R, 18 nM; in data set [1] it was 14 nM; in data set [2], 8.8 nM; in data set [4] it was 8.4 nM; in data set [7] it was 41 nM. Moreover, the GI50 in [8] was found to be 4.4 nM. For the same compound, in data set [3], the IC50 amounted to 52 nM. The CLint scaled at 1 μM was below 8.6 mL/min/kg in [5] and 231 mL/min/kg in data set [6].
